Assay results as given in patent US20090280069A1, “PROGUANIL TO TREAT SKIN/MUCOSAL DISEASES” (Tolmar, Inc., priority 2008, published 2009).

Legend:
Format in all cases: cell-based
[1] = system: Streptococcus dysgalactiae subsp. equisimilis ATCC 6644; experiment: time kill assay, S. dysgalactiae (Group G)
Procedure: Streptococcus dysgalactiae (Group G) infections can lead to skin diseases such as erysipelas and cellulitis. A time kill assay was used to test the effects of varying concentrations of proguanil on a culture of Streptococcus dysgalactiae subsp. equisimilis ATCC 6644. An inoculum of S. dysgalactiae was prepared and inoculated in vials containing Muller Hinton II broth and proguanil concentrations of 160, 80, 16, 8, and 1.6 μg/ml. A growth control using phosphate buffered saline A (PBSA) plus Mueller Hinton II broth was used in place of the drug because it has no antimicrobial effect. DGME was the solvent used to dissolve the proguanil, accordingly, 10% DGME was used as the solvent control. These inoculated broth solutions were then allowed to incubate for a period of 72 hours. Samples were taken at 0, 4, 24, 48 and 72 hours and spiral plated so the CFU/ml could be calculated. In the experiments, the effects of proguanil on the S. dysgalactiae were observed.

[2] = system: Candida albicans ATCC 10231; experiment: time kill assay, C. albicans
Procedure: A time kill assay was used to test the effects of varying concentrations of proguanil on a culture of Candida albicans ATCC 10231. An inoculum of C. albicans was prepared and inoculated in vials containing Muller Hinton II broth and proguanil concentrations of 1280, 640, 480, 320, 160 μg/ml. A growth control using phosphate buffered saline A (PBSA) plus Mueller Hinton II broth was used in place of the drug because it has no antimicrobial effect. DGME was the solvent used to dissolve the proguanil. Accordingly, 10% DGME was used as the solvent control. These inoculated broth solutions were then allowed to incubate for a period of 72 hours. Samples were taken at 0, 4, 24, 48 and 72 hours and spiral plated so the CFU/ml could be calculated.

[3] = system: Gardnerella vaginalis ATCC 14018; experiment: time kill assay, G. vaginalis
Procedure: A time kill assay was used to test the effects of varying concentrations of proguanil on a culture of Gardnerella vaginalis ATCC 14018. An inoculum of G. vaginalis was prepared and inoculated in vials containing Brain Heart Infusion/Hemoglobin broth containing proguanil concentrations of 160, 80, 16, 8, 1.6 μg/ml. A growth control using phosphate buffered saline A (PBSA) plus a Brain Heart Infusion/Hemoglobin broth was used in place of the drug because it has no antimicrobial effect. DGME was the solvent used to dissolve the proguanil, accordingly, 10% DGME in broth was used as the solvent control. These inoculated broth solutions were then allowed to incubate for a period of 72 hours. Samples were taken at 0, 4, 24, 48 and 72 hours and spiral plated so the CFU/ml could be calculated.

Structure (SMILES): CC(C)NC(=N)NC(=N)Nc1ccc(Cl)cc1 [Proguanil, N-(4-Chlorophenyl)-N′-(1-methylethyl)imidodicarbonimidic diamide]
- effect on CFU/ml ([1]; 80 μg/ml, time zero to 72 hours): only a slight increase in CFU/ml
- effect on the bacteria ([1]; 160 μg/ml): strong inhibition and killing effect
- CFU/ml ([1]; 160 μg/ml, T=24, 48 and 72 hours): 0 CFU/ml
- Relative Sensitivity (Compared to Other Strains Tested) ([1]; Streptococcus dysgalactiae (Group G) ATCC 6644): Sensitive
- Approximate Inhibitory Level ([1]; Streptococcus dysgalactiae (Group G) ATCC 6644, level at which partial or total inhibition of growth is observed): 80 to 160 µg/mL
- effect on CFU/ml ([1]; all other concentrations (16, 8, 1.6 μg/ml)): very similar and near the CFU/ml of the Mueller Hinton II broth control
- CFU/ml ([2]; 160 μg/ml, static from 24 to 72 hours): 80 CFU/ml
- effect on C. albicans ([2]; 320 μg/ml, 24 hour time point and later): completely killed
- CFU counts ([2]; 1280 μg/ml, all time points 0-72 hours): 0 CFU
- effect on the yeast ([2]; 640 and 480 μg/ml, 4-72 hour time points): killing all of the yeast
- Relative Sensitivity (Compared to Other Strains Tested) ([2]; Candida albicans): Moderately
- Approximate Inhibitory Level ([2]; Candida albicans, level at which partial or total inhibition of growth is observed): 320 µg/mL
- effect on the bacteria ([3]; 160 μg/ml and 80 μg/ml, 4 hours through 72 hours): killing effect
- inhibition of growth ([3]; 16, 8, and 1.6 μg/ml): no or little inhibition of growth
- CFU/ml ([3]; 160 and 80 μg/ml, T=24, 48 and 72 hours): 0 CFU/ml
- Relative Sensitivity (Compared to Other Strains Tested) ([3]; Gardnerella vaginalis ATCC 14018): Very Sensitive
- Approximate Inhibitory Level ([3]; Gardnerella vaginalis ATCC 14018, level at which partial or total inhibition of growth is observed): 80 µg/mL
